Calls of active or inactive are those of the source.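 Rule for the calls: active = IC50 half-maximal inhibitory concentration at or below 10 µM; inactive = IC50 above 10 µM.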

For the assay, the target named is VIM-2 metallo-beta-lactamase (Pseudomonas aeruginosa) (UniProt Q932Y6). Put plainly: VIM-2 inhibitor FRET-based artefact check, dose response, artefact control for selective VIM-2 inhibitor project, biochemical, FRET readout, CCF2 substrate (AID 1926). The following applies: purified VIM-2, CCF2 FRET substrate hydrolysis.
The term IC50 denotes the point on the concentration scale where inhibition reaches its midpoint. As to `COc1ccccc1-c1n[nH]c(=S)n1Cc1ccco1`, the IC50 was 6.53 µM. For `CSc1nc(SCC(=O)O)c2c3c(sc2n1)COC(C)(C)C3`, the IC50 was 5.35 µM. `O=C(CSc1nnc(NC(=O)c2cccc(F)c2)s1)NCc1ccco1`: the IC50 is 4.55 µM. The same measure for `S=c1[nH]nc(-c2ccccc2)n1CC1CCCO1` (configuration not stated): 4.15 µM; for `O=C(O)Cn1cccc1C(=O)c1ccccc1`: 4.04 µM. Turning to `Cn1c(-c2sccc2OCc2ccc(Cl)cc2Cl)n[nH]c1=S`, the half-inhibitory concentration (IC50) was 0.774 µM. With `Cn1c(-c2sccc2OCc2ccccc2)n[nH]c1=S`, the IC50 is 1.2 µM.

As for `S=c1[nH]nc(-c2ccccc2)n1C1C=CCCC1` (configuration not stated), the IC50 was 4.99 µM.

`Cc1nn(CCc2n[nH]c(=S)n2-c2cccc(Cl)c2)c(C)c1[N+](=O)[O-]`: the IC50 was 4.31 µM.

In the case of `O=P(O)(O)c1ccccc1OCc1ccccc1`, the 50% inhibitory concentration (IC50) was 0.689 µM. In the case of `S=c1[nH]nc(C2CC2)n1Cc1ccco1`, the IC50 is 3.76 µM. Take `O=C(O)c1ccccc1Sc1ncnc2sc3c(c12)CCC3`: the IC50 is 3.91 µM. With `O=P(O)(O)c1ccccc1OCCCCCOc1ccccc1P(=O)(O)O`, the IC50 is 0.862 µM. In the case of `CC(C)(C)C(=O)Nc1nnc(SCC(=O)NCc2cccs2)s1`, the IC50 is 0.874 µM. As to `CCCCn1c(-c2nn(C)cc2Cl)n[nH]c1=S`, the IC50 was 1.62 µM. The same measure for `C=C(c1cccc2ccccc12)P(=O)(O)O`: 2.17 µM. The same measure for `Cc1cccc(C2c3[nH]c4ccccc4c3CCN2C(=O)c2cc(CC(C)C)[nH]c(=O)n2)n1` (configuration not stated): 2.74 µM; for `CC(C)(C)C(=O)Nc1nnc(CSCc2ccccc2F)s1`: 1.96 µM; for `CCc1cc(=O)oc2c(C)c(OCC(=O)N3CCC[C@@H]3C(=O)O)ccc12`: 8.96 µM. `Cc1cc(=O)oc2c3c(cc(OCC(=O)N[C@@H](Cc4ccccc4)C(=O)O)c12)OC(C)(C)CC3`: the IC50 was 7.51 µM. For the compound `Cc1c(Cl)c(-c2n[nH]c(=S)n2-c2ccc(F)cc2)nn1C`, the IC50 is 6.25 µM. The same measure for `Fc1ccccc1-c1n[nH]c(=S)n1Cc1ccccc1`: 4.14 µM; for `CCCCn1c(-c2sccc2C)n[nH]c1=S`: 0.961 µM. Turning to `Cc1ccccc1C(=O)Nc1nnc(SCC(=O)NCc2ccco2)s1`, the IC50 was 1.12 µM. For the compound `Cn1ccnc1SCC(=O)Nc1ccc2nc(SCC(=O)NC3CC3)sc2c1`, the IC50 is 9 µM. Turning to `CCCn1c(C(C)C)n[nH]c1=S`, the IC50 is 3.48 µM. With `COc1ccc(-c2n[nH]c(=S)n2-c2ccc3c(c2)OCCO3)cc1OC`, the IC50 is 2.62 µM. In the case of `O=c1[nH]c2c(s1)C(c1cccnc1)C1C3CCC(C3)C1S2` (configuration not stated), the half-inhibitory concentration (IC50) is 0.0339 µM.

For `COCC(C)NC(=O)c1cc2cccc([N+](=O)[O-])c2[nH]1` (configuration not stated), the IC50 was 6.15 µM. In the case of `CC(C)Cn1c(-c2ccco2)n[nH]c1=S`, the IC50 is 4.37 µM. In the case of `Cc1c(C)c2c(OCC(=O)N[C@@H](C)C(=O)O)cc3c(c2oc1=O)CCC(C)(C)O3`, the IC50 is 1.54 µM. On to `CCCCn1c(-c2nn(C)c(C)c2Cl)n[nH]c1=S`, for which the IC50 is 1.99 µM. Then `O=c1c2ccccc2cnn1Cc1n[nH]c(=S)n1C1CC2CCC1C2` (configuration not stated), with 9.66 µM; and `O=c1[nH]c(SCc2n[nH]c(=S)n2-c2ccccc2)nc2sc3c(c12)CCC3`, with 4.2 µM.

For the compound `Cc1cc(OCc2cc(C(=O)O)oc2C)c2c3c(c(=O)oc2c1)CCCC3`, the IC50 is 0.582 µM.

As for `CCCCc1cc(=O)oc2c3c(cc(OCC(=O)N4CCC[C@H]4C(=O)O)c12)OC(C)(C)CC3`, the IC50 was 8.93 µM. On to `O=C(O)CC/C(=C\c1cc([N+](=O)[O-])ccc1Cl)c1nc2ccccc2s1`, for which the IC50 was 4.17 µM. Take `S=c1[nH]nc(-c2ccc3ccccc3n2)n1-c1ccc2c(c1)OCCO2`: the IC50 was 7.92 µM. In the case of `Cc1ccc(-n2c(-c3nn(C)c(C)c3Cl)n[nH]c2=S)cc1`, the IC50 was 3.72 µM. As for `Cc1n[nH]c(C)c1CCCCOc1ccc([N+](=O)[O-])cc1`, the IC50 is 5.26 µM. Consider `O=C(CSc1nnc(NC(=O)C2CC2)s1)NCc1ccccc1Cl`, for which the IC50 was 4.62 µM.

`O=C(CSc1nnc(NC(=O)c2cc(Br)ccc2Cl)s1)NCC1CCCO1` (configuration not stated): the IC50 was 5.87 µM. `Cc1ccc(-c2c(C(=O)O)c(C(=O)O)c3n2CSC3)cc1`: the IC50 is 2.95 µM. Regarding `CC(C)(C)c1ccc(-c2n[nH]c(=S)n2CCCN2CCOCC2)cc1`, the IC50 was 6.73 µM.

For the compound `COc1ccccc1C(=O)Nc1nnc(SCC(=O)NCc2ccco2)s1`, the IC50 was 2.61 µM. In the case of `CC1CCCCC1n1c(-c2cccnc2)n[nH]c1=S` (configuration not stated), the IC50 is 4.05 µM. As for `COCC(=O)Nc1nnc(SCC(=O)NCc2cccs2)s1`, the IC50 was 3.62 µM. As to `O=C(CSc1nnc(NC(=O)c2c(F)cccc2F)s1)NCc1ccccc1`, the IC50 was 3.62 µM. Take `S=c1[nH]nc(-c2ccco2)n1Cc1ccccc1`: the IC50 is 3.51 µM. Regarding `Cc1c(C)c2ccc(OCC(=O)N3CCC[C@@H]3C(=O)O)c(C)c2oc1=O`, the IC50 was 2.09 µM.

Regarding `CCCc1cc(=O)oc2c3c(cc(OCC(=O)N4CCC[C@H]4C(=O)O)c12)OC(C)(C)CC3`, the IC50 is 1.73 µM. Then `CC1CCCC(C)N1C(=O)CSc1nnc(NC(=O)c2cccs2)s1` (configuration not stated), with 3.92 µM. Regarding `CCCC(=O)Nc1nnc(SCC(=O)NCc2cccs2)s1`, the IC50 was 4.68 µM. Take `C=CCn1c(C2CC2)n[nH]c1=S`: the IC50 is 8.36 µM. On to `O=C1Nc2cc(C(=O)N3CCC(N4CCCCC4)CC3)ccc2S/C1=C\c1ccccc1`, for which the IC50 is 4.51 µM. The same measure for `C=C(C)Cn1c(-c2cccs2)n[nH]c1=S`: 1.39 µM; for `CC(C)(C)CC(=O)Nc1nnc(SCC(=O)NCc2cccs2)s1`: 6.64 µM. In the case of `O=C1Nc2cc(C(=O)NCCCN3CCOCC3)ccc2S/C1=C/c1ccccc1F`, the IC50 entry is “inactive”. `O=Cc1c(NCc2ccc(Cl)cc2)c2ccccc2[nH]c1=O`: the IC50 is 9.8 µM. As for `O=C(O)C1Sc2[nH]c(=O)sc2C2c3cc(Cl)ccc3OC(=O)C12` (configuration not stated), the IC50 was > 59.6 µM (inactive). The same measure for `CCOC(=O)N=S(N)(=O)c1ccccc1` (configuration not stated): 4.85 µM; for `O=C(c1ccco1)N1N=C(c2ccc(Cl)cc2)CC1c1ccco1` (configuration not stated): 1.61 µM; for `Cc1ccc(-c2n[nH]c(=S)n2-c2ccccc2)cc1`: “inactive”. Then `CCOC(=O)c1[nH]c(C(=O)O)c(CCC(=O)OC)c1C`, with 5 µM; and `O=C(O)C(NC(=O)c1ccccc1)=C(Cl)Cl`, with 7.85 µM. On to `CC(C)(C)c1ccc(COc2ccsc2C(=O)O)cc1`, for which the IC50 was 5.71 µM.

Take `Cc1c(C)c2c(OCC(=O)N3CCC[C@H]3C(=O)O)cc3c(c2oc1=O)CCC(C)(C)O3`: the IC50 was 0.525 µM. Then `S=c1[nH]nc(-c2cccs2)n1C1CCCCC1`, with 1.31 µM.

With `NC(=O)SCC(=O)Nc1ccccc1C(=O)O`, the IC50 is 5.27 µM. As to `Cc1cc(=O)oc2c3c(cc(OCC(=O)N4CCC[C@H]4C(=O)O)c12)OC(C)(C)CC3`, the IC50 was 4.93 µM. The same measure for `COc1cc2c(cc1OC)C(C)N(C(=O)c1nccnc1C(=O)O)CC2` (configuration not stated): 5.74 µM; for `Cc1c(OCC(=O)N2CCC[C@@H]2C(=O)O)ccc2c3c(c(=O)oc12)CCC3`: 5.43 µM. The same measure for `CSC[C@H](NC(=O)COc1cc2c(c3oc(=O)c(C)c(C)c13)CCC(C)(C)O2)C(=O)O`: 4.21 µM.

Regarding `O=[N+]([O-])c1ccc(-c2ccccc2)c([As](=O)(O)O)c1`, the IC50 was 0.245 µM. The same measure for `O=C(CSc1nnc(NC(=O)c2ccccc2[N+](=O)[O-])s1)NCc1ccco1`: 2.62 µM. For the compound `O=C(O)c1[nH]c2ccc(Br)cc2c1CCN1C(=O)c2cccc([N+](=O)[O-])c2C1=O`, the IC50 was 0.716 µM.

For `CCCc1cc(=O)oc2c3c(cc(OCC(=O)N[C@@H](C)C(=O)O)c12)OC(C)(C)CC3`, the IC50 was 6.97 µM. As for `O=C(CSc1nnc(NC(=O)c2ccccc2)s1)NCc1ccco1`, the IC50 is 4.63 µM.

As for `CCCCn1c(-c2ccoc2C)n[nH]c1=S`, the IC50 was 4.25 µM.

Turning to `O=C(O)c1ccccc1C(=O)c1cccc2ccccc12`, the IC50 is 3.82 µM. The same measure for `Cc1cccc(C(=O)Nc2nnc(SCC(=O)NCc3ccco3)s2)c1`: “inactive”; for `S=c1[nH]nc(-c2ccco2)n1-c1cccc2ccccc12`: 3.97 µM. Then `COc1ccccc1-n1c(-c2ccco2)n[nH]c1=S`, with 5.21 µM. Take `O=C(O)c1c(C(=O)O)c(-c2ccc(Br)cc2)n2c1CSC2`: the IC50 was 1.51 µM. For `CC1=C(C(=O)O)N2C(=O)C(NC(=O)c3nn(C)cc3[N+](=O)[O-])C2SC1` (configuration not stated), the IC50 is 8.54 µM. Take `O=C(CSc1nnc(NC(=O)C2CCCCC2)s1)NCc1ccco1`: the IC50 is 2.23 µM. For `S=c1[nH]nc(C2CC2)n1Cc1ccccc1`, the IC50 was 0.94 µM. In the case of `COc1ccc(-c2cc(C(F)(F)F)nc(N3CCN(C)CC3)n2)cc1`, the IC50 was > 59.6 µM (inactive). `Cc1cc(C)n(-c2nc(SCC(=O)O)c3c4c(sc3n2)COC(C)(C)C4)n1`: the IC50 was 9.07 µM. Consider `Cc1cc(C(=O)OCC(=O)NC(=O)c2cccn2C)c2ccccc2n1`, for which the IC50 is 2.3 µM. Then `CCN(CC)C(=O)CSc1nc2ccc(NC(=O)CSc3nccn3C)cc2s1`, with 3.61 µM; and `S=c1[nH]nc(Cn2c(-c3ccccn3)nc3ccccc32)n1-c1ccc2c(c1)OCCO2`, with 4.03 µM. As to `O=C(O)c1[nH]c2ccc(Cl)cc2c1CCN1C(=O)c2ccccc2C1=O`, the IC50 is 0.374 µM. On to `Cc1cc(OCC(=O)N2CCC[C@@H]2C(=O)O)c2c(C)c(C)c(=O)oc2c1`, for which the IC50 was 5.31 µM. Regarding `COc1cccc(-n2c(CNC(=O)OC(C)(C)C)n[nH]c2=S)c1`, the IC50 is 7.83 µM. As to `Cc1ccc(S(=O)(=O)n2[nH]c(=O)cc2NC(=O)c2cccs2)cc1`, the IC50 was 0.12 µM. As to `O=C(CCN1C(=O)/C(=C/c2ccccc2F)SC1=S)NCCCn1ccnc1`, the IC50 was 4.49 µM. For `COc1ccc2[nH]c(C(=O)O)c(CCN3C(=O)c4ccc(C(=O)O)cc4C3=O)c2c1`, the IC50 was 0.433 µM. As to `CCn1c(-c2nn(-c3ccccc3)ccc2=O)n[nH]c1=S`, the IC50 is 8.57 µM.

As to `Cc1cccc(-n2c(C)n[nH]c2=S)c1C`, the IC50 was 8.27 µM. `S=c1[nH]nc(-c2cccs2)n1Cc1ccccc1`: the IC50 was 0.889 µM. In the case of `O=C(CSc1nnc(NC(=O)c2ccccc2F)s1)NCc1ccc(F)cc1`, the IC50 is 3.65 µM.

These data come from PubChem BioAssay AID1926 (The Scripps Research Institute Molecular Screening Center, 2009).
